Test results published in patent US5091524A, “Glycosidase inhibitor salbostatin, process for its preparation, and its use” (Hoechst Aktiengesellschaft, priority 1988, dated 1992).

Target: T1, trehalase (Sigma No. T 8778) (Sus scrofa, UniProt I3LIR5)
T1 construct: purchased Sigma T 8778
T1 sequence (I3LIR5 24-583): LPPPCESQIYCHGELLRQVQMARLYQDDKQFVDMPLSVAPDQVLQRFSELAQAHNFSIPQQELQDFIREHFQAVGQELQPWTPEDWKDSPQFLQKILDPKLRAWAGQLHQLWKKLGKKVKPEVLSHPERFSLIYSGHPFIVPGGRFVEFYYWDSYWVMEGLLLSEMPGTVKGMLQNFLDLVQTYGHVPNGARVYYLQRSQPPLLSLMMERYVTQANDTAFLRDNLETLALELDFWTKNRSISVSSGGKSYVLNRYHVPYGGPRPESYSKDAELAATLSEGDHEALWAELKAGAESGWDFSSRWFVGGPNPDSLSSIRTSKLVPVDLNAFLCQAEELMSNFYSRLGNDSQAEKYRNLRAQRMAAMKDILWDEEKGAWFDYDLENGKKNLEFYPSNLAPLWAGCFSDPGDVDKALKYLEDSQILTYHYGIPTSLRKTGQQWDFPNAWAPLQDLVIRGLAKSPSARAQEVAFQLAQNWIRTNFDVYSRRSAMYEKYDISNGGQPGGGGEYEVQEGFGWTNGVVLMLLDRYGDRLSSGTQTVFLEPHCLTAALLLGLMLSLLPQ
Experiment: Trehalase assay (colorimetric determination of D-glucose liberated from trehalose)
Type: biochemical
Method: The trehalase assay is based on the colorimetric determination of D-glucose, which is liberated from trehalose by the action of trehalase.
Before the assay was started, trehalase (Sigma No. T 8778) was diluted with 20 mM phosphate buffer pH 6.5 in a ratio of 1 1000. Trehalose was dissolved in a concentration of 0.lM in 0.lM 2-(n-morpholino)ethanesulfonic acid.
At the beginning of the assay, 100 μl each of H2 O, trehalose and trehalase were combined and the mixture was incubated at 37° C. for 30 minutes. The reaction was stopped by heating the batch to 100° C. The control batch was stopped immediately (0 minutes) by boiling. Where appropriate, salbostatin was added to the reaction batches in various concentrations in place of water.
The glucose which was liberated from the trehalose was determined colorimetrically. To this end, the glucose was reacted by glucose oxidase and the H2 O2 which formed was used for oxidizing o-dianisidine.The oxidized odianisidine was determined using a photometer. All the abovementioned reagents for glucose determination came from the glucose kit manufactured by Sigma (Sigma Chemie GmbH, Deisenhofen, Germany; No. 510-DA), and the assay was carried out in accordance with the enclosed protocol.

OCC1=C[C@H](N[C@H]2CO[C@H](CO)[C@@H](O)[C@@H]2O)[C@H](O)[C@@H](O)[C@@H]1O [salbostatin]
Ki (competitive with regard to trehalose, read-out: inhibitor constant Ki): 0.18 µM
IC50 (substrate trehalose, 37° C., 30 minutes, read-out: salbostatin concentration showing an enzyme inhibition of 50%): 0.01 to 0.1 µM
type of inhibition (enzyme kinetics) (with regard to trehalose): competitive trehalase inhibitor
